# From the NIST ThermoML archive (doi:10.1021/acs.jced.7b01031)
# ± gives the expanded uncertainty stated by the source.
# Conditions: Pulse-echo method
compound,measurement,setting,value
Cl [hydrogen chloride],speed of sound,"218.3 K, Liquid",940 ± 3 m/s
same,speed of sound,"224.3 K, Liquid",910 ± 3 m/s
same,speed of sound,"229.2 K, Liquid",887 ± 3 m/s
same,speed of sound,"233.1 K, Liquid",865 ± 3 m/s
same,speed of sound,"243 K, Liquid",814 ± 3 m/s
same,speed of sound,"248 K, Liquid",790 ± 4 m/s
same,speed of sound,"252.9 K, Liquid",762 ± 4 m/s
same,speed of sound,"258 K, Liquid",734 ± 4 m/s
same,speed of sound,"263 K, Liquid",705 ± 4 m/s
same,speed of sound,"267 K, 7500 kPa, Fluid (supercritical or subcritical phases)",735 ± 6 m/s
same,speed of sound,"268 K, Liquid",676 ± 5 m/s
same,speed of sound,"269.9 K, 9700 kPa, Fluid (supercritical or subcritical phases)",740 ± 6 m/s
same,speed of sound,"273 K, Liquid",646 ± 5 m/s
same,speed of sound,"274.8 K, 13900 kPa, Fluid (supercritical or subcritical phases)",751 ± 5 m/s
same,speed of sound,"279.8 K, 5500 kPa, Fluid (supercritical or subcritical phases)",634 ± 7 m/s
same,speed of sound,"279.8 K, 18000 kPa, Fluid (supercritical or subcritical phases)",761 ± 5 m/s
same,speed of sound,"284.8 K, 8500 kPa, Fluid (supercritical or subcritical phases)",640 ± 7 m/s
same,speed of sound,"284.8 K, 22200 kPa, Fluid (supercritical or subcritical phases)",773 ± 4 m/s
same,speed of sound,"289.7 K, 11800 kPa, Fluid (supercritical or subcritical phases)",652 ± 7 m/s
same,speed of sound,"289.8 K, 26500 kPa, Fluid (supercritical or subcritical phases)",783 ± 4 m/s
same,speed of sound,"292.9 K, 6900 kPa, Fluid (supercritical or subcritical phases)",564 ± 9 m/s
same,speed of sound,"294.8 K, 15600 kPa, Fluid (supercritical or subcritical phases)",666 ± 6 m/s
same,speed of sound,"294.8 K, 30800 kPa, Fluid (supercritical or subcritical phases)",794 ± 4 m/s
same,speed of sound,"295 K, 8000 kPa, Fluid (supercritical or subcritical phases)",567 ± 9 m/s
same,speed of sound,"299.8 K, 19200 kPa, Fluid (supercritical or subcritical phases)",678 ± 6 m/s
same,speed of sound,"300 K, 11100 kPa, Fluid (supercritical or subcritical phases)",582 ± 9 m/s
same,speed of sound,"300 K, 35100 kPa, Fluid (supercritical or subcritical phases)",805 ± 4 m/s
same,speed of sound,"303.1 K, 37700 kPa, Fluid (supercritical or subcritical phases)",810 ± 4 m/s
same,speed of sound,"305 K, 14200 kPa, Fluid (supercritical or subcritical phases)",595 ± 8 m/s
same,speed of sound,"305 K, 22900 kPa, Fluid (supercritical or subcritical phases)",690 ± 6 m/s
same,speed of sound,"305 K, 39300 kPa, Fluid (supercritical or subcritical phases)",814 ± 4 m/s
same,speed of sound,"310 K, 17300 kPa, Fluid (supercritical or subcritical phases)",608 ± 7 m/s
same,speed of sound,"310 K, 26300 kPa, Fluid (supercritical or subcritical phases)",700 ± 5 m/s
same,speed of sound,"315 K, 20400 kPa, Fluid (supercritical or subcritical phases)",621 ± 7 m/s
same,speed of sound,"315 K, 30000 kPa, Fluid (supercritical or subcritical phases)",712 ± 5 m/s
same,speed of sound,"320 K, 10800 kPa, Fluid (supercritical or subcritical phases)",425 ± 15 m/s
same,speed of sound,"320 K, 23500 kPa, Fluid (supercritical or subcritical phases)",632 ± 6 m/s
same,speed of sound,"320 K, 33600 kPa, Fluid (supercritical or subcritical phases)",722 ± 4 m/s
same,speed of sound,"325 K, 12900 kPa, Fluid (supercritical or subcritical phases)",441 ± 9 m/s
same,speed of sound,"325 K, 26600 kPa, Fluid (supercritical or subcritical phases)",643 ± 6 m/s
same,speed of sound,"325 K, 37200 kPa, Fluid (supercritical or subcritical phases)",732 ± 4 m/s
same,speed of sound,"328 K, 39300 kPa, Fluid (supercritical or subcritical phases)",738 ± 4 m/s
same,speed of sound,"330 K, 15100 kPa, Fluid (supercritical or subcritical phases)",456 ± 9 m/s
same,speed of sound,"330 K, 29800 kPa, Fluid (supercritical or subcritical phases)",654 ± 5 m/s
same,speed of sound,"335 K, 17200 kPa, Fluid (supercritical or subcritical phases)",469 ± 9 m/s
same,speed of sound,"335 K, 32900 kPa, Fluid (supercritical or subcritical phases)",665 ± 5 m/s
same,speed of sound,"340 K, 19300 kPa, Fluid (supercritical or subcritical phases)",482 ± 10 m/s
same,speed of sound,"340 K, 36000 kPa, Fluid (supercritical or subcritical phases)",675 ± 5 m/s
same,speed of sound,"345 K, 21500 kPa, Fluid (supercritical or subcritical phases)",494 ± 8 m/s
same,speed of sound,"345 K, 39200 kPa, Fluid (supercritical or subcritical phases)",685 ± 5 m/s
same,speed of sound,"350 K, 23700 kPa, Fluid (supercritical or subcritical phases)",506 ± 7 m/s
same,speed of sound,"355 K, 25900 kPa, Fluid (supercritical or subcritical phases)",517 ± 6 m/s
same,speed of sound,"359.9 K, 21500 kPa, Fluid (supercritical or subcritical phases)",433 ± 9 m/s
same,speed of sound,"360 K, 28000 kPa, Fluid (supercritical or subcritical phases)",527 ± 8 m/s
same,speed of sound,"365 K, 30200 kPa, Fluid (supercritical or subcritical phases)",537 ± 7 m/s
same,speed of sound,"369.9 K, 24900 kPa, Fluid (supercritical or subcritical phases)",454 ± 8 m/s
same,speed of sound,"370 K, 32400 kPa, Fluid (supercritical or subcritical phases)",547 ± 5 m/s
same,speed of sound,"374.9 K, 34600 kPa, Fluid (supercritical or subcritical phases)",556 ± 5 m/s
same,speed of sound,"379.9 K, 28400 kPa, Fluid (supercritical or subcritical phases)",473 ± 6 m/s
same,speed of sound,"379.9 K, 36800 kPa, Fluid (supercritical or subcritical phases)",565 ± 6 m/s
same,speed of sound,"385.9 K, 39400 kPa, Fluid (supercritical or subcritical phases)",575 ± 7 m/s
same,speed of sound,"389.9 K, 31800 kPa, Fluid (supercritical or subcritical phases)",491 ± 6 m/s
same,speed of sound,"394.9 K, 22700 kPa, Fluid (supercritical or subcritical phases)",371 ± 6 m/s
same,speed of sound,"399.9 K, 12100 kPa, Fluid (supercritical or subcritical phases)",324 ± 2 m/s
same,speed of sound,"399.9 K, 35300 kPa, Fluid (supercritical or subcritical phases)",508 ± 6 m/s
same,speed of sound,"404.9 K, 24800 kPa, Fluid (supercritical or subcritical phases)",386 ± 5 m/s
same,speed of sound,"409.9 K, 21600 kPa, Fluid (supercritical or subcritical phases)",356 ± 5 m/s
same,speed of sound,"411.9 K, 39500 kPa, Fluid (supercritical or subcritical phases)",526 ± 6 m/s
same,speed of sound,"414.9 K, 26900 kPa, Fluid (supercritical or subcritical phases)",400 ± 6 m/s
same,speed of sound,"419.9 K, 13200 kPa, Fluid (supercritical or subcritical phases)",339 ± 2 m/s
same,speed of sound,"419.9 K, 23100 kPa, Fluid (supercritical or subcritical phases)",368 ± 3 m/s
same,speed of sound,"424.9 K, 29000 kPa, Fluid (supercritical or subcritical phases)",414 ± 6 m/s
same,speed of sound,"434.9 K, 31000 kPa, Fluid (supercritical or subcritical phases)",426 ± 5 m/s
same,speed of sound,"439.9 K, 14300 kPa, Fluid (supercritical or subcritical phases)",355 ± 2 m/s
same,speed of sound,"439.9 K, 26100 kPa, Fluid (supercritical or subcritical phases)",390 ± 3 m/s
same,speed of sound,"444.9 K, 33100 kPa, Fluid (supercritical or subcritical phases)",438 ± 5 m/s
same,speed of sound,"459.9 K, 29100 kPa, Fluid (supercritical or subcritical phases)",411 ± 3 m/s
same,speed of sound,"460 K, 15500 kPa, Fluid (supercritical or subcritical phases)",369 ± 2 m/s
same,speed of sound,"460 K, 36100 kPa, Fluid (supercritical or subcritical phases)",456 ± 4 m/s
same,speed of sound,"474.9 K, 39200 kPa, Fluid (supercritical or subcritical phases)",472 ± 4 m/s
same,speed of sound,"479.9 K, 16500 kPa, Fluid (supercritical or subcritical phases)",383 ± 2 m/s
same,speed of sound,"479.9 K, 32000 kPa, Fluid (supercritical or subcritical phases)",430 ± 3 m/s
